Results from patent US7741064B2, “Materials and methods relating to G-protein coupled receptor oligomers” (The University Court of the University of Glasgow, priority 2003, dated 2010).
Numbering of substitutions follows the chain as printed. Entries after “also recorded” stand apart in the source; their conditions may differ.

Experiments:
[1] = target: T1, Leu133Asp histamine H1 receptor-G11α co-expressed with α1b-adrenoceptor-Gly208Ala G11α (UniProt P18841+P35367, L133D); assay: [Ca2+]i imaging in EF88 cells; format: cell-based; conditions: phenylephrine 10 μM, histamine 1 mM (FIG. 7A)
T1 construct: the full length c-myc-tagged α1b-adrenoceptor-G11α fusion protein; expressed in transfected cells; host or cells: EF88 mouse embryo fibroblasts (Gqα/G11α double knock-out)
T1 sequence (P35367 whole entry L133D, the tested form may be a part): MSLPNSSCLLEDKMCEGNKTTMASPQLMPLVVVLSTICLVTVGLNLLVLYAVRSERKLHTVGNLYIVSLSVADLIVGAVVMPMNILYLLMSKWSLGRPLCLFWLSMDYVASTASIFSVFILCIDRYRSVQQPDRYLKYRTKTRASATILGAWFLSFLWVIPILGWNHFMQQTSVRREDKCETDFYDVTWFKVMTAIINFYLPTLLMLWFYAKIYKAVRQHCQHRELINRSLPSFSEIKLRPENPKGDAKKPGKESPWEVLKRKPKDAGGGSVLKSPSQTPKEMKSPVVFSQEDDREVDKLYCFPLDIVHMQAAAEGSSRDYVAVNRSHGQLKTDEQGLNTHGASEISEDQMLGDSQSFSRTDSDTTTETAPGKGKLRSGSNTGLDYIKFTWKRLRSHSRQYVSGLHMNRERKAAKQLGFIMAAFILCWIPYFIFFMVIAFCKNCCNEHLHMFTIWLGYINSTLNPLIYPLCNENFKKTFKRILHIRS
T1 sequence (P21278 whole entry partner, the tested form may be a part): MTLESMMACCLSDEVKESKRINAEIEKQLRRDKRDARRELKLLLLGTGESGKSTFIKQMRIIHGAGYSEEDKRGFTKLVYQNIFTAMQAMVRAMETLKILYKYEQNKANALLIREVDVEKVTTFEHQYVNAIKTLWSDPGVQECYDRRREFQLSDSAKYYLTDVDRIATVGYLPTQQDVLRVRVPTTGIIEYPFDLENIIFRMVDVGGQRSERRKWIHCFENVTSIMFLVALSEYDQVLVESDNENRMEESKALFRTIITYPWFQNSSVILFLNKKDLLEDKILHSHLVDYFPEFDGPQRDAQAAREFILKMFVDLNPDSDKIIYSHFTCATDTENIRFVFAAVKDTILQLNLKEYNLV
T1 sequence (P18841 whole entry, the tested form may be a part): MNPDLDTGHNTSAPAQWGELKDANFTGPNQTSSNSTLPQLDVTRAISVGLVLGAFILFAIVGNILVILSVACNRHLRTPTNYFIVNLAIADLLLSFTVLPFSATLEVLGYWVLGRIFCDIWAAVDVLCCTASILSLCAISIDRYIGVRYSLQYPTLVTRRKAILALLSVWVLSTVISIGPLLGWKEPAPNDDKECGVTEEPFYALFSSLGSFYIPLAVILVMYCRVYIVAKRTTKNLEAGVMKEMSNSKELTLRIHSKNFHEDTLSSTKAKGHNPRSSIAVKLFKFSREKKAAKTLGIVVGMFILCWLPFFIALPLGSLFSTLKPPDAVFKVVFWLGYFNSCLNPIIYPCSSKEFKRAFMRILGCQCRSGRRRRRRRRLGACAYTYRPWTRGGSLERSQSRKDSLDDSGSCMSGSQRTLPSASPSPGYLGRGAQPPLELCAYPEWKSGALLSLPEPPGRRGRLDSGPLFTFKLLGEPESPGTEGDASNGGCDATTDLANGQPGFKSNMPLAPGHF
T1 sequence (P21278 whole entry G208A partner, the tested form may be a part): as the sequence (P21278 whole entry partner, the tested form may be a part) above, with G208A counted along it
Experimental: EF88 cells were grown in DMEM supplemented with 10% (v/v) heat inactivated foetal bovine serum and L-glutamine (1 mM) in a 95% air and 5% CO2 atmosphere at 37° C. A portion of the cells harvested during trypsinization were plated on to glass coverslips and after a 24 h growth period they were transfected using LipofectAMINE (Life Technologies Inc.) according to the manufacturers' instructions. After 3 h cells were washed twice with OPTIMEM 1 and then cultured in DMEM growth medium for a further 24 h. A total of 3 μg of pCDNA3 containing the relevant cDNA species were used to transfect each coverslip. Transfected EF88 cells were loaded with the Ca^2+-sensitive dye Fura-2 by incubation (15-20 min, 37° C.) under reduced light in DMEM growth medium containing the dye's membrane-permanent acetoxymethylester form (1.5 μM).

[2] = target: histamine H1 receptor-G11α co-transfected with Leu151Asp α1b-adrenoceptor (UniProt P21278+P35367); conditions: EF88 cells; 1 mM histamine; versus histamine H1 receptor-G11α alone (FIG. 12B)
[3] = target: histamine H1 receptor-G11α fusion co-expressed with isolated Leu151Asp α1b-adrenoceptor (UniProt P21278+P35367); conditions: in comparison to membranes expressing the same level of only the histamine H1 receptor-G11α fusion; 1 mM histamine (FIG. 12A)
[4] = target: Leu133Asp histamine H1 receptor-G11α fusion protein (Homo sapiens, UniProt P35367, L133D); conditions: HEK293 membranes; 1 mM histamine (FIG. 5(3))
Sequence of Leu133Asp histamine H1 receptor-G11α fusion protein (P35367 whole entry L133D, the tested form may be a part): as the sequence (P35367 whole entry L133D, the tested form may be a part) above
Experimental: (§1) [^35S]GTPγS binding experiments were initiated by the addition of membranes containing defined amounts of the fusion constructs (see Results for details) to an assay buffer (20 mM HEPES (pH 7.4), 3 mM MgCl2, 100 mM NaCl, 1 μM guanosine 5′-diphosphate, 0.2 mM ascorbic acid, 50 nCi [^35S]GTPγS) containing the indicated concentrations of receptor ligands. Non-specific binding was determined in the same conditions but in the presence of 100 μM GTPγS. Reactions were incubated for 15 min at 30° C. and were terminated by the addition of 0.5 ml of ice cold buffer, containing 20 mM HEPES (pH 7.4), 3 mM MgCl2 and 100 mM NaCl.
(§2) Finally, the immunocomplexes were washed twice with solubilization buffer, and bound [^35S]GTPγS measured by liquid-scintillation spectrometry.

[5] = target: co-expressed histamine H1 receptor-Gly208AlaG11α + Leu133Asp histamine H1 receptor-G11α (Homo sapiens, UniProt P35367, L133D); conditions: HEK293 membranes; two mutants co-expressed; 1 mM histamine (FIG. 5(4))
Experimental: as §1, §2

[6] = target: wild type histamine H1 receptor-G11α fusion protein (Homo sapiens, UniProt P35367); conditions: HEK293 membranes; 1 mM histamine (FIG. 5(1))
Sequence of wild type histamine H1 receptor-G11α fusion protein (P35367 whole entry, the tested form may be a part): as the sequence (P35367 whole entry L133D, the tested form may be a part) above, with D133L counted along it
Experimental: as §1, §2

[7] = target: histamine H1 receptor-Gly208Ala G11α fusion protein (UniProt P21278+P35367, G208A); conditions: HEK293 membranes; 1 mM histamine (FIG. 5(2))
Experimental: as §1, §2

[8] = target: T2, Leu151Aspα1b-adrenoceptor-G11α co-expressed with histamine H1 receptor-Gly208Ala G11α (UniProt P18841+P35367, L151D); format: cell-based; conditions: EF88 cells; phenylephrine 10 μM, histamine 1 mM (FIG. 7B)
T2 construct: the full length c-myc-tagged α1b-adrenoceptor-G11α fusion protein; expressed in transfected cells; host or cells: EF88 mouse embryo fibroblasts (Gqα/G11α double knock-out)
T2 sequence (P21278 whole entry G208A, one chain of several, the tested form may be a part): as the sequence (P21278 whole entry partner, the tested form may be a part) above, with G208A counted along it
T2 sequence (P21278 whole entry, stated change not applied, one chain of several, the tested form may be a part): as the sequence (P21278 whole entry partner, the tested form may be a part) above
T2 sequence (P35367 whole entry, one chain of several, the tested form may be a part): as the sequence (P35367 whole entry L133D, the tested form may be a part) above, with D133L counted along it

[9] = target: T3, co-expressed α1b-adrenoceptor-Gly208AlaG11α + Leu151Aspα1b-adrenoceptor-G11α (Mesocricetus auratus, UniProt P18841, L151D); assay: [35S]GTPγS binding, membranes of HEK293 cells; format: biochemical; conditions: two non-functional mutants co-expressed, 10 μM phenylephrine (FIG. 4A(4))
T3 construct: the full length c-myc-tagged α1b-adrenoceptor-G11α fusion protein; expressed in transfected cells; host or cells: HEK293 (membranes)
Experimental: (§3) [^35S]GTPγS binding experiments were initiated by the addition of membranes containing defined amounts of the fusion constructs (see Results for details) to an assay buffer (20 mM HEPES (pH 7.4), 3 mM MgCl2, 100 mM NaCl, 1 μM guanosine 5′-diphosphate, 0.2 mM ascorbic acid, 50 nCi [^35S]GTPγS) containing the indicated concentrations of receptor ligands. Non-specific binding was determined in the same conditions but in the presence of 100 μM GTPγS. Reactions were incubated for 15 min at 30° C. and were terminated by the addition of 0.5 ml of ice cold buffer, containing 20 mM HEPES (pH 7.4), 3 mM MgCl2 and 100 mM NaCl. The samples were centrifuged at 16,000 g for 15 min at 4° C., and the resulting pellets were resuspended in solubilization buffer (100 mM Tris, 200 mM NaCl, 1 mM EDTA, 1.25% Nonidet P-40) plus 0.2% sodium dodecylsulfate. Samples were precleared with Pansorbin (Calbiochem), followed by immunoprecipitation with CQ antiserum (Mitchell et al., 1993).

[10] = target: T4, Leu151Aspα1b-adrenoceptor-G11α fusion protein (Mesocricetus auratus, UniProt P18841, L151D); assay: [35S]GTPγS binding, membranes of HEK293 cells; format: biochemical; conditions: 10 μM phenylephrine (FIG. 4A(3))
T4 construct: the full length c-myc-tagged α1b-adrenoceptor-G11α fusion protein; expressed in transfected cells; host or cells: HEK293 (membranes)
T4 sequence (P18841 1-515 L151D): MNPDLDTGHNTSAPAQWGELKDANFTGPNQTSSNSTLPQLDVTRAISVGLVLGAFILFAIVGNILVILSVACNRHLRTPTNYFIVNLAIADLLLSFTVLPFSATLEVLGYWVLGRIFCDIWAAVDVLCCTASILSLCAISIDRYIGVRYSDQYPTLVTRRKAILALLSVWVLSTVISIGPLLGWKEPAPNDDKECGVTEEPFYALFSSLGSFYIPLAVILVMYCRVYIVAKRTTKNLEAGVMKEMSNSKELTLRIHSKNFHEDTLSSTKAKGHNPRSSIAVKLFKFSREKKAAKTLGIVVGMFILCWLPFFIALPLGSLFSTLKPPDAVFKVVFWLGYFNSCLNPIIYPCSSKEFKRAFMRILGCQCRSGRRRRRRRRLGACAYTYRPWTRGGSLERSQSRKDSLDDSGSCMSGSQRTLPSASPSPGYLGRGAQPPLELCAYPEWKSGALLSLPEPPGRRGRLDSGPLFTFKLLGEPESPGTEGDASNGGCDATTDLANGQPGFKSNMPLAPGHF
Experimental: as §3

[11] = target: T5, wild type α1b-adrenoceptor-G11α fusion protein (Mesocricetus auratus, UniProt P18841); assay: [35S]GTPγS binding, membranes of HEK293 cells; format: biochemical; conditions: 10 μM phenylephrine (FIG. 4A)
T5 construct: the full length c-myc-tagged α1b-adrenoceptor-G11α fusion protein; expressed in transfected cells; host or cells: HEK293 (membranes)
T5 sequence (P18841 1-515): T4 sequence (P18841 1-515 L151D) with D151L
Experimental: as §3

[12] = target: T6, α1b-adrenoceptor-Gly208AlaG11α fusion protein (UniProt P18841+P21278, G208A); assay: [35S]GTPγS binding, membranes of HEK293 cells; format: biochemical; conditions: 10 μM phenylephrine (FIG. 4A(2))
T6 construct: the full length c-myc-tagged α1b-adrenoceptor-G11α fusion protein; expressed in transfected cells; host or cells: HEK293 (membranes)
T6 sequence (P18841+P21278 fused P21278:G208A): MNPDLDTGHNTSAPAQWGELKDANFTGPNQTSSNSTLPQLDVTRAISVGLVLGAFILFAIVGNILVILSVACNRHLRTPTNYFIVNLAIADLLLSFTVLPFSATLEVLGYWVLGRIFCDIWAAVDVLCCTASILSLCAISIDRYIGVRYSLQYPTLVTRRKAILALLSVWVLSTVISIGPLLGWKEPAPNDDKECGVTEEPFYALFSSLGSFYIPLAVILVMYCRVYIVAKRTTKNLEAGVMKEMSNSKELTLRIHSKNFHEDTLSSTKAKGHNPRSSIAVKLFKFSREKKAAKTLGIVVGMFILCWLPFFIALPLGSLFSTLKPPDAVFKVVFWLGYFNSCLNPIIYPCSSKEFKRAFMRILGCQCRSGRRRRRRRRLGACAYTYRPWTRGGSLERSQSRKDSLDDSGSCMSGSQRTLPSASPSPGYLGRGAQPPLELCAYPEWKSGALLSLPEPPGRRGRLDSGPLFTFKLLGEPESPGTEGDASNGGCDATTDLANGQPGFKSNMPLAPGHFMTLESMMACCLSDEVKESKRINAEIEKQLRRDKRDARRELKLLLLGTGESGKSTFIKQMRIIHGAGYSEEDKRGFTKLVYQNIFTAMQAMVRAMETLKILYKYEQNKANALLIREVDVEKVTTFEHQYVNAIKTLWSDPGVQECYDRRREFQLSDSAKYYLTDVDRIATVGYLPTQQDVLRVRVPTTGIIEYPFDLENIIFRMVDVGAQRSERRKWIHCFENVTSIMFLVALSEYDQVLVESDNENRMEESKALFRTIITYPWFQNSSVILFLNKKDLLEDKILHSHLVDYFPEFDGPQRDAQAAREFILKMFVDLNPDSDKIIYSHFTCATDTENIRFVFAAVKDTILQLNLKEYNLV
Experimental: as §3

[13] = system: c-myc-Nt-TM1α1b-G11α; assay: [35S]GTPγS binding recovered in anti-c-myc immunoprecipitates, HEK293 cells; format: biochemical; conditions: 10 μM phenylephrine (FIG. 13B)
Experimental: as §3

Row | SMILES | elevation of intracellular [Ca2+] [1] | histamine stimulation of intracellular [Ca2+] [2] | histamine stimulation of [35S]GTPγS binding [3] | stimulation of [35S]GTPγS binding [4] | agonist activation of the G protein ([35S]GTPγS binding) [5] | stimulation of [35S]GTPγS binding [6] | stimulation of [35S]GTPγS binding [7] | elevation of intracellular [Ca2+] [8] | agonist-mediated binding of [35S]GTPγS [9] | stimulation of [35S]GTPγS binding [10] | stimulation of the binding of [35S]GTPγS [11] | stimulation of [35S]GTPγS binding [12] | stimulation of [35S]GTPγS binding in anti-c-myc immunoprecipitates ([13]; co-expressed with the isolated α1b-adrenoceptor) | [35S]GTPγS binding in response to agonist ([13]; construct expressed alone)
1 | NCCc1c[nH]cn1 [histamine] | little or no change | reduced markedly | significantly reduced | absent | reconstituted agonist activation | large stimulation | absent | caused elevation of intracellular [Ca^2+]; also recorded: elevation of intracellular calcium |  |  |  |  |  | 
2 | CNC[C@H](O)c1cccc(O)c1 [phenylephrine] | able to elevate intracellular [Ca^2+]; also recorded: elevation of intracellular calcium concentration |  |  |  |  |  |  | did not; also recorded: little or no change | reconstituted phenylephrine-mediated binding | unable to stimulate binding | large stimulation | essentially eliminated | did not result in significant stimulation | did not bind
